# According to patent US9139577B2, “Sulfoximine substituted quinazolines for pharmaceutical compositions” (Boehringer Ingelheim International GmbH, priority 2013, dated 2015):
# Columns and labels:
# MNK1 = MNK1 (Homo sapiens (Human), UniProt Q9BUB5); test: MNK1 in vitro kinase assay (Assay 3), Z'-LYTE; assay type: biochemical; settings: for inhibition at 1 µM: compound concentration of 1 μM, read-out: MNK1 % INH
# Excerpt: C. MNK1 In vitro Kinase Assay (Assay 3)
# MNK1 Data can be obtained from the MNK1 Z′-LYTE® assay. The MNK1 Z′-LYTE® screening protocol and assay conditions are also described on www.invitrogen.com.
# The assay is described as follows:
# The Z′-LYTE® biochemical assay employs a fluorescence-based, coupled-enzyme format and is based on the differential sensitivity of phosphorylated and non-phosphorylated peptides to proteolytic cleavage. The peptide substrate is labeled with two fluorophores—one at each end—that make up a FRET pair.
# In the primary reaction, the kinase transfers the gamma-phosphate of ATP to a single tyrosine, serine or threonine residue in a synthetic FRET-peptide. In the secondary reaction, a site-specific protease recognizes and cleaves non-phosphorylated FRET-peptides. Phosphorylation of FRET-peptides suppresses cleavage by the Development Reagent. Cleavage disrupts FRET between the donor (i.e., coumarin) and acceptor (i.e., fluorescein) fluorophores on the FRET-peptide, whereas uncleaved, phosphorylated FRET-peptides maintain FRET. A ratiometric method, which calculates the ratio (the Emission Ratio) of donor emission to acceptor emission after excitation of the donor fluorophore at 400 nm, is used to quantitate reaction progress, as shown in the equation below.
# ASSAY SETUP: The inhibition of kinase activity of MNK1a was assessed using pre-activated GST-MNK1a. The 2×MKNK1 (MNK1) mixture is prepared in 50 mM HEPES pH 7.5, 0.01% BRIJ-35, 10 mM MgCl2, 4 mM MnCl2, 1 mM EGTA, 2 mM DTT.
# The Test Compounds are screened in 1% DMSO (final) in the well.
# All Peptide/Kinase Mixtures are diluted to a 2× working concentration in the MNK1 Kinase Buffer.
# All ATP Solutions are diluted to a 4× working concentration in Kinase Buffer (50 mM HEPES pH 7.5, 0.01% BRIJ-35, 10 mM MgCl2, 1 mM EGTA).
# Development Reagent Solution:
# The Development Reagent is diluted in Development Buffer
# 1. 2.5 μL—4× Test Compound
# 2. 5 μL—2× Peptide/Kinase Mixture
# 5. 60-minute Kinase Reaction incubation at room temperature
# 6. 5 μl—Development Reagent Solution
# 8. 60-minute Development Reaction incubation at room temperature
# 9. Read on fluorescence plate reader and analyze the data
# The following equations are used for each set of data points: […]
# Correction for Background Fluorescence: FlSample-FlTCFl Ctl
# % Phosphorylation (% Phos): 1−((Emission Ratio×F100%)−C100%)/((C0%−C100%)+[Emission Ratio×(F100%−F0%)])*100%
# % Inhibition: 1−(% PhosSample/% Phos0% Inhibition Ctl)*100
# Fl=Fluorescence Intensity
# C100%=Average Coumarin emission signal of the 100% Phos. Control
# C0%=Average Coumarin emission signal of the 0% Phos. Control
# F100%=Average Fluorescein emission signal of the 100% Phos. Control
# F0%=Average Fluorescein emission signal of the 0% Phos. Control
# SelectScreen® Kinase Profiling Service uses XLfit from IDBS.
# MNK2a = MNK2a (Homo sapiens (Human), UniProt Q9HBH9); test: MNK2a in vitro kinase assay (Assay 2), ADP-Glo; assay type: biochemical; settings: read-out: MNK2 IC50
# MNK2a, sequence (Q9HBH9 whole entry): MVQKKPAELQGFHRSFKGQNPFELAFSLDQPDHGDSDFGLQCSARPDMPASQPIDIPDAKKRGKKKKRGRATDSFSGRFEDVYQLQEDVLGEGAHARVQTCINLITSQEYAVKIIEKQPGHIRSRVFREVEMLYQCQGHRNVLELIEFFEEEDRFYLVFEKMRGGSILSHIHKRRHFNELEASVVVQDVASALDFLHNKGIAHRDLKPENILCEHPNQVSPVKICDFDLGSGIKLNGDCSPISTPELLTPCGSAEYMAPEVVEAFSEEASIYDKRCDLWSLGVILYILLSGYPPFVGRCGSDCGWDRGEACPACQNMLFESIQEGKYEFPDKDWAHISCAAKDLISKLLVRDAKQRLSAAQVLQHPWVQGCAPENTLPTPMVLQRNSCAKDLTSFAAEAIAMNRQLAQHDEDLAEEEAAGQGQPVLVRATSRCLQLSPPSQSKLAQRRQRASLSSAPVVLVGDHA
# MNK1, sequence (Q9BUB5 other isoform, or with tags, fused parts or gaps): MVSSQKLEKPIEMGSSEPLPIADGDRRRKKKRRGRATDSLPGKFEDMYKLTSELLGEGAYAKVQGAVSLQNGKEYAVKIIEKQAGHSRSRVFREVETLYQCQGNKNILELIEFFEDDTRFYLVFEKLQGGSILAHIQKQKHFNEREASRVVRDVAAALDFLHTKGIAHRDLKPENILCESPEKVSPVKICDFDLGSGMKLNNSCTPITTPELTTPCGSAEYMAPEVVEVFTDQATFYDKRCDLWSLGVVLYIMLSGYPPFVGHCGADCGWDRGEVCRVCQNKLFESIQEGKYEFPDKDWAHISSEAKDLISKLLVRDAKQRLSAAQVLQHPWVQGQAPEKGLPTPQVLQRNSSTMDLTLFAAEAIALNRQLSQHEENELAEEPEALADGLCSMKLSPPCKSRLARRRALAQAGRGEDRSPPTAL
SMILES,inhibition at 1 µM (MNK1) [%],IC50 (MNK2a) [nM],IC50 (MNK1) [nM]
Cc1cc(N=S(C)(C)=O)cc2ncnc(Nc3ccc(F)cc3OCC3CC3(F)F)c12 (centres unmarked) [Example 3.008],89,5,
CCC(C)Oc1cc(F)ccc1Nc1ncnc2cc(N=S(C)(C)=O)cc(C)c12 (centres unmarked) [Example 3.042],78,15,
C[C@@H](Oc1cc(F)ccc1Nc1ncnc2cc(N=S3(=O)CCCC3)cc(F)c12)C(=O)NCC(F)(F)F [Example 3.047],96,1,
Cc1cc(N=S2(=O)CCCC2)cc2ncnc(Nc3ccc(F)cc3OC(CF)CF)c12 [Example 1.011],,2,34
Cc1cc(N=S(C)(C)=O)cc2ncnc(Nc3ccc(F)cc3OCC3(C#N)CCC3)c12 [Example 3.014],78,8,
Cc1cc(N=S(C)(C)=O)cc2ncnc(Nc3ccc(F)cc3OC(C)COC3CCOC3)c12 (centres unmarked) [Example 3.028],92,6,
Cc1cc(N=S(C)(C)=O)cc2ncnc(Nc3ccc(F)cc3OCC3CCOCC3)c12 [Example 3.045],78,10,
Cc1cc(N=S(C)(C)=O)cc2ncnc(Nc3ccc(F)cc3O[C@H](C)CN)c12 [Example 3.018],92,1,
Cc1cc(C(C)Oc2cc(F)ccc2Nc2ncnc3cc(N=S(C)(C)=O)cc(F)c23)on1 (centres unmarked) [Example 2.002],94,6,
Cc1cc(N=S(C)(C)=O)cc2ncnc(Nc3ccc(F)cc3OCC3CCCCO3)c12 (centres unmarked) [Example 3.006],70,1,
Cc1cc(N=S(C)(C)=O)cc2ncnc(Nc3ccc(F)cc3OCC3(C)COC3)c12 [Example 3.029],72,17,
CC(Oc1cc(F)ccc1Nc1ncnc2cc(N=S(C)(C)=O)cc(F)c12)C(F)(F)F (centres unmarked) [Example 1.020],80,7,
CS(C)(=O)=Nc1cc(C(F)(F)F)c2c(Nc3ccc(F)cc3OC(CF)CF)ncnc2c1 [Example 1.002],59,6,
CCS(C)(=O)=Nc1cc(Cl)c2c(Nc3cccnc3O[C@H](C)c3cc(C)no3)ncnc2c1 (some centres unmarked) [Example 1.005],98,2,
Cc1cc(N=S(C)(C)=O)cc2ncnc(Nc3ccc(F)cc3OC(C)CF)c12 (centres unmarked) [Example 1.015],100,54,
C[C@H](NC(=O)[C@@H](C)Oc1cc(F)ccc1Nc1ncnc2cc(N=S3(=O)CCC3)cc(F)c12)C(F)(F)F [Example 4.136],93,1,29

# The next lines start with the values.
inhibition at 1 µM (MNK1) [%],IC50 (MNK2a) [nM],IC50 (MNK1) [nM],SMILES
74,25,,Cc1cc(N=S(C)(C)=O)cc2ncnc(Nc3ccc(F)cc3O[C@H](C)C(=O)N3CCN(C)CC3)c12 [Example 4.056]
98,3,,Cc1cc(N=S2(=O)CCCC2)cc2ncnc(Nc3ccc(F)cc3O[C@H](C)C(=O)NCCO)c12 [Example 4.072]
99,3,,Cc1cc(N=S(C)(C)=O)cc2ncnc(Nc3ccc(F)cc3O[C@H](C)C(=O)NCCO)c12 [Example 4.029]
96,2,,Cc1cc(N=S2(=O)CCCC2)cc2ncnc(Nc3ccc(F)cc3O[C@H](C)C(=O)N(C)C(C)C)c12 [Example 4.003]
93,9,,Cc1cc(N=S(C)(C)=O)cc2ncnc(Nc3ccc(F)cc3O[C@H](C)C(=O)N[C@@H]3CCC[C@H]3O)c12 [Example 4.065]
70,13,,Cc1cc(N=S(C)(C)=O)cc2ncnc(Nc3ccc(F)cc3O[C@H](C)C(=O)N(C)CCO)c12 [Example 4.061]
99,5,,Cc1cc(N=S(C)(C)=O)cc2ncnc(Nc3ccc(F)cc3O[C@H](C)C(=O)NC3CCC3)c12 [Example 4.023]
99,1,,C#CCNC(=O)[C@@H](C)Oc1cc(F)ccc1Nc1ncnc2cc(N=S3(=O)CCCC3)cc(C)c12 [Example 4.027]
99,3,21,C[C@H](NC(=O)[C@@H](C)Oc1cc(F)ccc1Nc1ncnc2cc(N=S(C)(C)=O)cc(F)c12)C(F)(F)F [Example 4.118]
38,83,,Cc1cc(N=S(C)(C)=O)cc2ncnc(Nc3ccc(F)cc3O[C@H](C)CNS(C)(=O)=O)c12 [Example 5.003]
89,4,,Cc1cc(N=S2(=O)CCCC2)cc2ncnc(Nc3ccc(F)cc3O[C@H](C)C(=O)N3CCC(O)C3)c12 (some centres unmarked) [Example 4.010]
90,4,,COC1CCN(C(=O)[C@@H](C)Oc2cc(F)ccc2Nc2ncnc3cc(N=S4(=O)CCCC4)cc(C)c23)CC1 [Example 4.059]
102,2,,COc1cc(N=S(C)(C)=O)cc2ncnc(Nc3ccc(F)cc3OC(C)c3cc(C)no3)c12 (centres unmarked) [Example 7.003]
88,5,,Cc1cc(N=S(C)(C)=O)cc2ncnc(Nc3ccc(F)cc3O[C@H](C)C(=O)N(C)CC(C)C)c12 [Example 4.013]
74,35,,CC(=O)NC[C@@H](C)Oc1cc(F)ccc1Nc1ncnc2cc(N=S(C)(C)=O)cc(C)c12 [Example 5.009]
86,24,,Cc1cc(N=S(C)(C)=O)cc2ncnc(Nc3ccc(F)cc3O[C@H](C)C(=O)NCC3CCCO3)c12 (some centres unmarked) [Example 4.011]
87,66,,COCCNC(=O)[C@@H](C)Oc1cc(F)ccc1Nc1ncnc2cc(N=S(C)(C)=O)cc(C)c12 [Example 4.035]
102,2,,Cc1cc(N=S2(=O)CCCC2)cc2ncnc(Nc3ccc(F)cc3O[C@H](C)C(=O)N[C@H]3CCOC3)c12 [Example 4.057]
,3,51,CCNC(=O)[C@@H](C)Oc1cc(F)ccc1Nc1ncnc2cc(N=S(C)(C)=O)cc(C)c12 [Example 4.034]
,3,75,Cc1cc(N=S2(=O)CCCC2)cc2ncnc(Nc3ccc(F)cc3O[C@H](C)C(=O)NCC(C)(C)O)c12 [Example 4.058]
96,3,,CC#CCNC(=O)[C@@H](C)Oc1cc(F)ccc1Nc1ncnc2cc(N=S3(=O)CCCC3)cc(C)c12 [Example 4.044]
99,2,,Cc1cc(N=S(C)(C)=O)cc2ncnc(Nc3ccc(F)cc3O[C@H](C)C(=O)NC(C)C)c12 [Example 4.060]
98,1,,Cc1cc([C@@H](C)Oc2cc(F)ccc2Nc2ncnc3cc(N=S4(=O)CCN(C)CC4)cc(C)c23)on1 [Example 7.001]
85,10,,Cc1cc(N=S(C)(C)=O)cc2ncnc(Nc3ccc(F)cc3O[C@H](C)C(=O)N=S(C)(C)=O)c12 [Example 4.022]
,2,39,CCNC(=O)N1CCS(=O)(=Nc2cc(C)c3c(Nc4ccc(F)cc4O[C@H](C)c4cc(C)no4)ncnc3c2)CC1 [Example 5.008]
62,14,,COCCN(C)C(=O)[C@@H](C)Oc1cc(F)ccc1Nc1ncnc2cc(N=S(C)(C)=O)cc(C)c12 [Example 4.055]
74,28,,Cc1cc(N=S(C)(C)=O)cc2ncnc(Nc3ccc(F)cc3O[C@H](C)C(=O)N3CCC(O)C3)c12 (some centres unmarked) [Example 4.005]
97,2,14,C[C@@H](Oc1cc(F)ccc1Nc1ncnc2cc(N=S3(=O)CCC3)cc(F)c12)C(=O)NCC(F)(F)F [Example 4.100]
,1,38,Cc1cc(N=S2(=O)CCCC2)cc2ncnc(Nc3ccc(F)cc3O[C@H](C)C(=O)NCC(F)(F)F)c12 [Example 4.074]
100,1,,Cc1cc(N=S2(=O)CCC2)cc2ncnc(Nc3ccc(F)cc3O[C@H](C)C(=O)N[C@@H](C)C(F)(F)F)c12 [Example 4.104]
